Read-outs that look alike come from different tables or passages of the source.
How the values were obtained:
[1] = CSF pharmacokinetics on Day 7, healthy volunteers; assay type: in vivo, human; conditions: for CSF AUC0-24 AM / CSF AUC0-24 GM / CSF AUC0-24 Median / CSF Cmax AM / CSF Cmax GM / CSF Cmax Median / Tmax: Day 7, CSF, healthy volunteers; for Cmax, CSF/IC50: IC50 0.9 nM; for Tmax: male, human, CSF, oral
Experimental: CSF Assessment: On the morning of Day 7, local anesthetic (e.g., lidocaine 2% with epinephrine) was administered subcutaneously at the site of lumbar puncture. An indwelling intrathecal catheter was inserted at the lumbar region (L3-L5) by a trained and experienced anesthesiologist (i.e., using an epidural tray, 17G or 20/22G Tuohy needle and catheter over needle system). A CSF sample was collected for safety labs (i.e., cell count, glucose, protein). Serial CSF samples were then collected through the spinal catheter and tubing connected to a fractional collection system (i.e., peristaltic pump). The CSF samples (8 mL) were collected at a flow rate of 0.5 mL/min over a 16-minute period at pre-dose, and at 0.5 h, 1.0 h, 1.5 h, 2 h, 2.5 h, 3 h, 4 h, 6 h, 8 h, 12 h and 24 h post-dose. The first 2 mL of CSF was discarded, and the 6 mL remainder was used for the PK study.
The plasma and CSF samples were analyzed, by validated LC/MS-MS methods. PK analysis was conducted based on PK/PP Population: Cmax, AUC0-t, AUC0-24, AUC0-∞, Tmax, Cavg, CL/F, Cmin, t1/2, Kel, Vd (V/F; Vd/F), and Vss/F. Model-independent plasma PK parameters (Cmax, Tmax, t1/2, AUC0-t, AUC0-24, AUC0-∞, Cavg, CL/F, Vss/F, Vd/F), after the first dose (Day 1) and last dose (Day 7), Cmin on Days 2-7) was listed by subject and summarized by study cohort. In addition to the descriptive statistics listed above, geometric means was reported for the pivotal PK endpoints (CL/F, Vss/F, Vd/F, Cmin, Cavg, AUC0-t, AUC0-24, AUC0-∞, and Cmax). For CSF, PK parameters (Cmax, Tmax, t1/2, AUC0-t, AUC0-24, Cmin, Cavg, CL/F, Vss/F) was listed by subject and summarized by cohort. Ratios of CSF: plasma concentration at each time point was listed by subject and summarized by study cohort.
Forty-one healthy adult male volunteers aged 18 to 45 with body mass indexes (BMI)≥18 to ≤30 Kg/m^2 and total body weight >50 kg (110 lb) were screened in order to enroll 19 subjects with an average age of 34.2 years (range 21.5-45.6 years) into this study Six participants were randomly assigned to the 48 and 192 mg cohorts, and seven participants were assigned to the 384 mg cohort. After an overnight fast, participants received once daily doses of vodobatinib as capsules for 7 days. Serial PK blood samples to measure vodobatinib plasma concentrations were collected at pre-dose and at 0.25, 0.5, 1, 1.5, 2, 2.5, 3, 4, 6, 8, 12, 16 and 24 h post-dose after the first dose on Day 1 and the last dose on day 7. Additional PK samples prior to the morning doses were taken on Days 3-6. On the morning of Day 7, prior to dosing, an indwelling intrathecal catheter was inserted in the lumbar region (L3-L5). Serial CSF samples were collected through the catheter connected via peristaltic pump to a fraction collector. At each designated CSF collection time point, 8 mL of CSF was collected at a flow rate of 0.5 mL/min over a 16-min period at pre-dose, and 0.5, 1.0, 1.5, 2, 2.5, 3, 4, 6, 8, 12 and 24 h post-dose. The first 2 mL of CSF was discarded, and the remaining 6 mL was used for the vodobatinib assay. The occurrence of treatment-emergent adverse events (TEAEs) and serious AEs (SAEs) reported through the completion of study were collected. Clinical laboratory parameters, vital signs and physical examination data and electrocardiogram (ECG) were collected and evaluated relative to baseline values.

c-Abl = c-Abl (Homo sapiens, UniProt P00519); experiment: Competition binding KINOMEscan assay (DiscoverX); conditions: read-out: Kd, Binding Assay hAbl
Sequence of c-Abl (P00519 whole entry): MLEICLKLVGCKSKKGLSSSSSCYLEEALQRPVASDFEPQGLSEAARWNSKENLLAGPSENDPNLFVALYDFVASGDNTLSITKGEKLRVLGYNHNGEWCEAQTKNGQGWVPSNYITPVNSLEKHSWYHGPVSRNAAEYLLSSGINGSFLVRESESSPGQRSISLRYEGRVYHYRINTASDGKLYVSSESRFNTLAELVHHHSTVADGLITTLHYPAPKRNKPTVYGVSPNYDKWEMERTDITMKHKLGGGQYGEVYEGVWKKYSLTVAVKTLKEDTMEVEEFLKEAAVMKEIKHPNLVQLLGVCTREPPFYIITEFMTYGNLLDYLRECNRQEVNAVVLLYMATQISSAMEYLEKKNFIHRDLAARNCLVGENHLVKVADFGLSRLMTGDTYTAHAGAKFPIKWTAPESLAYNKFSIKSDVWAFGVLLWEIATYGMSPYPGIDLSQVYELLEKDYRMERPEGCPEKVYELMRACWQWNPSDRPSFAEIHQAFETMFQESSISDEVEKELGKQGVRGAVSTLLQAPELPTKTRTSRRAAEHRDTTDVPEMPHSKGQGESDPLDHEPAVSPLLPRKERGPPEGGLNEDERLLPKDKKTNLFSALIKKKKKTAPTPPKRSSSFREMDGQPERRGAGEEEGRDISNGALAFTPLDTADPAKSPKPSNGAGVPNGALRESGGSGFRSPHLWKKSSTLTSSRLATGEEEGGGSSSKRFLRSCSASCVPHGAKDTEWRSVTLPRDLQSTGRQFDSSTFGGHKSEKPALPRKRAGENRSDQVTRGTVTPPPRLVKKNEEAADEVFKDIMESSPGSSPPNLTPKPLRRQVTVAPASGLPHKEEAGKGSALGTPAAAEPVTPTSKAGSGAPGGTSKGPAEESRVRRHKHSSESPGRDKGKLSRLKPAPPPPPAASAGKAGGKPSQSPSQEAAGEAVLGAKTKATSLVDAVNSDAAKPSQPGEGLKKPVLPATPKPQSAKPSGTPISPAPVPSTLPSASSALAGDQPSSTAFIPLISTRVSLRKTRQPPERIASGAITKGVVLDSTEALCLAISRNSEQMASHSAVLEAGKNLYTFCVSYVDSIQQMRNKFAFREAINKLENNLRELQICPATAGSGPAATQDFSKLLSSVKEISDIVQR
Experimental: The binding affinity of vodobatinib to c-Abl was determined in a competition binding KINOMETM scan assay. […] Liganded beads were blocked with excess biotin, and washed with blocking buffer (SEA BLOCK Pierce), with 1% BSA, 0.05% Tween 20, 1 mM DTT) to remove unbound ligand and reduce non-specific binding. […] The kinase concentration in the eluates was measured by qPCR. The kinase concentrations in test compound treated wells were compared with that in the non-treated wells across the concentration range to generate the Kd values.

[2] = 48 mg, Day 7, Healthy Volunteers
[3] = 192 mg, Day 7, Healthy Volunteers
[4] = 384 mg, Day 7, Healthy Volunteers

Cc1ccc(C(=O)NNC(=O)c2c(C)cccc2Cl)cc1C#Cc1cnc2ccccc2c1 [N′-(2-chloro-6-methylbenzoyl)-4-methyl-3-[2-(3-quinolyl)ethynyl]-benzohydrazide]
CSF AUC0-24 ([1]; 48 mg, Day 7): 0.0183 µM·h | CSF AUC0-24 AM ([1]; 48 mg): 10.0 ng·h/mL | CSF AUC0-24 GM ([1]; 48 mg): 8.9 ng·h/mL | CSF AUC0-24 Median ([1]; 48 mg): 10.1 ng·h/mL | CSF Cmax AM ([1]; 48 mg): 0.8 ng/mL | CSF Cmax GM ([1]; 48 mg): 0.7 ng/mL | CSF Cmax Median ([1]; 48 mg): 0.8 ng/mL | CSF AUC0-24 [1, 2]: 10.0 ng·h/mL | Cavg, CSF [1, 2]: (0.9 nM) | Cmax, CSF [1, 2]: (1.8 nM) | Cmax, CSF ([1]; 48 mg, Day 7, Healthy Volunteers, Table 11A): 0.8 ng/mL | Cmax, CSF/IC50 [1, 2]: 2.0 | Cavg, CSF ([1]; 48 mg, Day 7, Healthy Volunteers, estimated as AUC(0-24)/24): 0.42 ng/mL | CSF concentrations at 2-3 h ([1]; 48 mg, healthy subjects): 0.5 to 0.7 ng/mL | CSF AUC0-24 ([1]; 192 mg, Day 7): 0.1304 µM·h | CSF AUC0-24 AM ([1]; 192 mg): 74.5 ng·h/mL | CSF AUC0-24 GM ([1]; 192 mg): 59.2 ng·h/mL | CSF AUC0-24 Median ([1]; 192 mg): 64.5 ng·h/mL | CSF Cmax AM ([1]; 192 mg): 5.2 ng/mL | CSF Cmax GM ([1]; 192 mg): 4.6 ng/mL | CSF Cmax Median ([1]; 192 mg): 5.2 ng/mL | CSF AUC0-24 [1, 3]: 74.5 ng·h/mL | Cavg, CSF [1, 3]: (6.8 nM) | Cmax, CSF [1, 3]: (11.5 nM) | Cmax, CSF ([1]; 192 mg, Day 7, Healthy Volunteers, Table 11A): 5.2 ng/mL | Cmax, CSF/IC50 [1, 3]: 13 | Cavg, CSF ([1]; 192 mg, Day 7, Healthy Volunteers, estimated as AUC(0-24)/24): 3.3 ng/mL | CSF AUC0-24 ([1]; 384 mg, Day 7): 0.1201 µM·h | CSF AUC0-24 AM ([1]; 384 mg): 58.7 ng·h/mL | CSF AUC0-24 GM ([1]; 384 mg): 54.5 ng·h/mL | CSF AUC0-24 Median ([1]; 384 mg): 60.0 ng·h/mL | CSF Cmax AM ([1]; 384 mg): 5.5 ng/mL | CSF Cmax GM ([1]; 384 mg): 5.4 ng/mL | CSF Cmax Median ([1]; 384 mg): 5.1 ng/mL | CSF AUC0-24 [1, 4]: 58.7 ng·h/mL | Cavg, CSF [1, 4]: (5.3 nM) | Cmax, CSF [1, 4]: (12.3 nM) | Cmax, CSF ([1]; 384 mg, Day 7, Healthy Volunteers, Table 11A): 5.5 ng/mL | Cmax, CSF/IC50 [1, 4]: 14 | Cavg, CSF ([1]; 384 mg, Day 7, Healthy Volunteers, estimated as AUC(0-24)/24): 2.4 ng/mL | quantifiable CSF concentrations ([1]; Day 7, 3 dose cohorts): observed in all subjects | Tmax ([1]; 48 mg, read-out: CSF Tmax Median): 3 h | Tmax ([1]; 48 mg, read-out: CSF Tmax Min, Max): 3 to 6.02 h | Tmax ([1]; 192 mg, read-out: CSF Tmax Median): 6 h | Tmax ([1]; 192 mg, read-out: CSF Tmax Min, Max): 2.03 to 6.01 h | Tmax ([1]; 384 mg, read-out: CSF Tmax Median): 5 h | Tmax ([1]; 384 mg, read-out: CSF Tmax Min, Max): 2.5 to 8.01 h | ratio of concentration in CSF to IC50 of c-Abl inhibition ([1]; therapeutically effective amount): not less than 1 | Kd (c-Abl): 0.98 nM
